Laboratory results published in article doi:10.1101/2025.07.02.662713v1, “A FRET-based high-throughput screening assay for the discovery of Mycobacterium tuberculosis DNA ADP-ribosylglycohydrolase DarG inhibitors” (biorxiv, 2025).

Assays:
[1] = biological target: T1, MtbDarG MD; CFP-MtbDarG MD (Mycobacterium tuberculosis, UniProt O53605); test: FRET displacement of PARylated YFP-GAP; format: binding
T1 construct: gene darG

PARP14 MD1 = biological target: T2, PARP14 MD1 (Homo sapiens, UniProt Q460N5); test: FRET displacement of MARylated YFP-GAP; format: binding
T2 construct: macrodomain 1 only, CFP fusion, produced as described earlier
T2 sequence (Q460N5 791-978 limits assumed): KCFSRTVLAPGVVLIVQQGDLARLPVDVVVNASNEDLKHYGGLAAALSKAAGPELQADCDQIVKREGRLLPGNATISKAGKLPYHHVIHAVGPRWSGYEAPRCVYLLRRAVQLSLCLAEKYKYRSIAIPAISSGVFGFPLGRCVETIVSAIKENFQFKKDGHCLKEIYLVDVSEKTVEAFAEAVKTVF

[2] = biological target: T3, MtbDarG (hydrolysis assay) (Mycobacterium tuberculosis, UniProt O53605); test: gel-based ADP-ribosyl-ssDNA hydrolysis assay; format: biochemical; details: 1 µM hydrolase, pranlukast 2-250 µM, pre-incubation 10 min; Tris pH 7.5, 37 °C, 30 min
T3 construct: gene darG
T3 sequence (O53605 whole entry): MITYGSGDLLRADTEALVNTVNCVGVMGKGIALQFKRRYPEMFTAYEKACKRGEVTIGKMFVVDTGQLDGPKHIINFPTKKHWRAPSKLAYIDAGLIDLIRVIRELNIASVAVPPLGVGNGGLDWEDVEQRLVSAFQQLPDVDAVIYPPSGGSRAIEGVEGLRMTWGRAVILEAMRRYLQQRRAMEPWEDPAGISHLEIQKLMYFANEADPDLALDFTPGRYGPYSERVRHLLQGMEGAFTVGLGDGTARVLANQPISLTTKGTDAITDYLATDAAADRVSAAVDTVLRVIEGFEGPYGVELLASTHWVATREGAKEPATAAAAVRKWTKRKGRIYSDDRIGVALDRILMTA

PARP15 MD1 = biological target: T4, PARP15 MD1 (Homo sapiens, UniProt Q460N3); test: FRET displacement of MARylated YFP-GAP; format: binding
T4 construct: macrodomain 1 only, CFP fusion, produced as described earlier
T4 sequence (Q460N3 78-267 limits assumed): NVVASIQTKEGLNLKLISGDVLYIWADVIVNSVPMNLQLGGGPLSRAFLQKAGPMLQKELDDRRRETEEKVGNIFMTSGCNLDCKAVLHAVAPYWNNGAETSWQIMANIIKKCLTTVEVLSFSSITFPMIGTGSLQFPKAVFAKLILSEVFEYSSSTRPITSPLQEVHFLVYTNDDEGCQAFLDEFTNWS

T. aq. DarG; T.aq. DarG = biological target: T5, T. aq. DarG; T.aq. DarG (Thermus aquaticus, UniProt P0DV57); test: gel-based ADP-ribosyl-ssDNA hydrolysis assay; format: biochemical; details: 1 µM hydrolase, pranlukast 2-250 µM, pre-incubation 10 min; Tris pH 7.5, 37 °C, 30 min
T5 construct: recombinant, prepared as previously published
T5 sequence (P0DV57 1-360): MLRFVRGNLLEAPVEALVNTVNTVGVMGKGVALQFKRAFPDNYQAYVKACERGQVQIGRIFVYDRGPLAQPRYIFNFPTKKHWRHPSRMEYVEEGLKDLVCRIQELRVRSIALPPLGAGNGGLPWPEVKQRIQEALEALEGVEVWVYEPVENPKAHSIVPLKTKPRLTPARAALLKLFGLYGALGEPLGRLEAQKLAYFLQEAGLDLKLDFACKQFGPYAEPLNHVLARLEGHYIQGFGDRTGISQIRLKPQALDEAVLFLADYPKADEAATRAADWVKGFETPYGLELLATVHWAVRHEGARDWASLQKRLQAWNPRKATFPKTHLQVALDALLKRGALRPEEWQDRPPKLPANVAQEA
Text: gel-based ADP-ribosyl-ssDNA hydrolysis assay on T. aq. DarG; T.aq.

PARP9 MD1 = biological target: T6, PARP9 MD1 (Homo sapiens, UniProt Q8IXQ6); test: FRET displacement of MARylated YFP-GAP; format: binding
T6 construct: macrodomain 1 only, CFP fusion, produced as described earlier

SCO6735 = biological target: T7, SCO6735 (Streptomyces coelicolor, UniProt Q9X7P1); test: gel-based ADP-ribosyl-ssDNA hydrolysis assay; format: biochemical; details: 1 µM hydrolase, pranlukast 2-250 µM, pre-incubation 10 min; Tris pH 7.5, 37 °C, 30 min
T7 construct: recombinant, prepared as previously published
T7 sequence (Q9X7P1 1-161): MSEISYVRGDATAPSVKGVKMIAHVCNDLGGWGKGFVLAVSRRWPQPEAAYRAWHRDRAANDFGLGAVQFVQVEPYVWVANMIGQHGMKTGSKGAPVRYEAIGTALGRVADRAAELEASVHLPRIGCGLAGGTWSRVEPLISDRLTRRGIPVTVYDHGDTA

T1 sequence (O53605 1-155): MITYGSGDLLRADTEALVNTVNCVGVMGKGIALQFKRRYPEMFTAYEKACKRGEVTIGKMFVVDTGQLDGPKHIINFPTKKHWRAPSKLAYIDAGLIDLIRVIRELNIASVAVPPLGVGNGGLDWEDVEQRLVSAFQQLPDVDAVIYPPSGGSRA

SMILES	IC50 [1]	IC50 (PARP14 MD1)	gel-based ADP-ribosyl-ssDNA hydrolysis assay [2]	IC50 (PARP15 MD1)	gel-based ADP-ribosyl-ssDNA hydrolysis assay (T. aq. DarG; T.aq. DarG)	IC50 (PARP9 MD1)	gel-based ADP-ribosyl-ssDNA hydrolysis assay (SCO6735)
COc1ccc(-c2ccccc2)cc1NS(=O)(=O)c1cc(Cl)cc(Cl)c1O [BMS303141]	18.7 µM						
Cc1cc(SCc2sc(-c3ccc(C(F)(F)F)cc3)nc2C)ccc1OCC(=O)O [GW501516]	56.5 µM						
O=C(Nc1cccc2c(=O)cc(-c3nn[nH]n3)oc12)c1ccc(OCCCCc2ccccc2)cc1 [pranlukast]	4 µM	~100 µM	pranlukast inhibited the enzymatic activity of MtbDarG on this ADP-ribosylated ssDNA substrate	~100 µM	pranlukast exhibited an even higher inhibitory potency against DarG from Thermus aquaticus bacterium	~100 µM	DarG from Thermus aquaticus bacterium (T.aq. DarG) and SCO6735
O=C(O)C(=O)c1cn(Cc2ccccc2)c2ccc(-c3ccc(OC(F)(F)F)cc3)cc12 [tiplaxtinin]	5.7 µM						
